According to ChEMBL document CHEMBL1201862, “PubChem BioAssay data set” (2004):
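Grown in 96-well plates, cells were treated for 48 hours with each compound at five concentrations. Insufficient inhibition: endpoint recorded as highest concentration tested. At the GI50, growth is halved.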 Activity calls are given as the source filed them. Rule as the data show it: active = GI50 up to about 1.1 µM and inactive = higher.

Experiments:
Experiment in all cases: NCI-60 cell line screen, 48 h
HCT-116 = tested on: HCT-116
HCT-15 = tested on: HCT-15
HOP-92 = tested on: HOP-92
KM12 = tested on: KM12
NCI-H226 = tested on: NCI-H226
NCI-H23 = tested on: NCI-H23
NCI-H522 = tested on: NCI-H522
OVCAR-4 = tested on: OVCAR-4
RPMI-8226 = tested on: RPMI-8226
SF-268 = tested on: SF-268
SK-MEL-28 = tested on: SK-MEL-28
SN12C = tested on: SN12C
SNB-75 = tested on: SNB-75
SW-620 = tested on: SW-620
U-251 = tested on: U-251
UACC-62 = tested on: UACC-62
UO-31 = tested on: UO-31
A498 = tested on: A498
LOX IMVI = tested on: LOX IMVI

Row | Compound | GI50 (HCT-116) | GI50 (HCT-15) | GI50 (HOP-92) | GI50 (KM12) | GI50 (NCI-H226) | GI50 (NCI-H23) | GI50 (NCI-H522) | GI50 (OVCAR-4) | GI50 (RPMI-8226) | GI50 (SF-268) | GI50 (SK-MEL-28) | GI50 (SN12C) | GI50 (SNB-75) | GI50 (SW-620) | GI50 (U-251) | GI50 (UACC-62) | GI50 (UO-31) | GI50 (A498) | GI50 (LOX IMVI)
1 | O=c1[nH]c(C2CCCCC2)nc2cc(Cl)ccc12 | > 100 µM (inactive) | > 100 µM | 44 µM (inactive) | > 100 µM (inactive) | > 100 µM (inactive) | > 100 µM (inactive) | > 100 µM (inactive) | 67.3 µM (inactive) | > 100 µM (inactive) | > 100 µM (inactive) | > 100 µM (inactive) | > 100 µM (inactive) | 55.6 µM (inactive) | > 100 µM (inactive) | > 100 µM (inactive) | > 100 µM (inactive) | 58.2 µM (inactive) |  | 
2 | C=CCNC(=O)/C=C\C(=O)O | > 100 µM (inactive) | > 100 µM | > 100 µM (inactive) | > 100 µM (inactive) | > 100 µM (inactive) | > 100 µM (inactive) | > 100 µM (inactive) | > 100 µM (inactive) |  | > 100 µM (inactive) | > 100 µM (inactive) | > 100 µM (inactive) | > 100 µM (inactive) | > 100 µM (inactive) | > 100 µM (inactive) | > 100 µM (inactive) | > 100 µM (inactive) | > 100 µM (inactive) | > 100 µM (inactive)
3 | CC/C(CC(=O)CCC(=O)Nc1ccc(C)c(C)c1)=N\NC(=O)C(N)=O | > 100 µM (inactive) | > 100 µM | > 100 µM (inactive) |  | > 100 µM (inactive) | > 100 µM (inactive) | > 100 µM (inactive) | > 100 µM (inactive) | > 100 µM (inactive) | > 100 µM (inactive) | > 100 µM (inactive) | > 100 µM (inactive) | > 100 µM (inactive) | > 100 µM (inactive) | > 100 µM (inactive) | > 100 µM (inactive) | > 100 µM (inactive) | > 100 µM (inactive) | 
4 | NC(=S)NS(=O)(=O)c1ccc(Cl)cc1Cl | > 100 µM (inactive) | > 100 µM | > 100 µM (inactive) | > 100 µM (inactive) | > 100 µM (inactive) | > 100 µM (inactive) | > 100 µM (inactive) | > 100 µM (inactive) | > 100 µM (inactive) | > 100 µM (inactive) | > 100 µM (inactive) | > 100 µM (inactive) | > 100 µM (inactive) | > 100 µM (inactive) | > 100 µM (inactive) | > 100 µM (inactive) | > 100 µM (inactive) |  | > 100 µM (inactive)
5 | O=C(O)Cc1cc(=O)oc2cc(O)c(Cl)cc12 | > 100 µM (inactive) | > 100 µM | > 100 µM (inactive) | > 100 µM (inactive) | > 100 µM (inactive) | > 100 µM (inactive) | > 100 µM (inactive) | > 100 µM (inactive) | > 100 µM (inactive) | > 100 µM (inactive) | > 100 µM (inactive) | > 100 µM (inactive) | 28.6 µM (inactive) | > 100 µM (inactive) | > 100 µM (inactive) | > 100 µM (inactive) |  | > 100 µM (inactive) | > 100 µM (inactive)
6 | COP(=O)(OC)/C(=N\Nc1ccc([N+](=O)[O-])cc1)NCc1ccccc1 | 21 µM (inactive) | 32.4 µM | 18.8 µM (inactive) | 24.5 µM (inactive) |  | 18.9 µM (inactive) | 13.4 µM (inactive) | 24.5 µM (inactive) | 19.2 µM (inactive) | 23.7 µM (inactive) | 30.8 µM (inactive) |  | 11.2 µM (inactive) | 35.6 µM (inactive) | 23.4 µM (inactive) | 28 µM (inactive) |  |  | 
7 | CC1(O)CCn2c(=O)c3cc4ccccc4cc3c(=O)n2C1O (stereo unspecified) | > 100 µM (inactive) | > 100 µM | 79.3 µM (inactive) | > 100 µM (inactive) | > 100 µM (inactive) | > 100 µM (inactive) | 22 µM (inactive) |  | > 100 µM (inactive) | > 100 µM (inactive) | > 100 µM (inactive) | > 100 µM (inactive) |  | > 100 µM (inactive) | > 100 µM (inactive) | > 100 µM (inactive) |  |  | > 100 µM (inactive)
8 | C[C@H]1COC2(c3ccccc3)CCC(=O)N12 (stereo partly specified) | > 100 µM (inactive) | > 100 µM | > 100 µM (inactive) | > 100 µM (inactive) |  | > 100 µM (inactive) |  | > 100 µM (inactive) | > 100 µM (inactive) | > 100 µM (inactive) | > 100 µM (inactive) | > 100 µM (inactive) | > 100 µM (inactive) | > 100 µM (inactive) | > 100 µM (inactive) | > 100 µM (inactive) |  | > 100 µM (inactive) | > 100 µM (inactive)
9 | COCOc1ccc(Cn2c(=O)n(C)c(=O)c3c2ncn3C)cc1[N+](=O)[O-] | > 100 µM (inactive) | > 100 µM |  | > 100 µM (inactive) | 46.3 µM (inactive) | 80.2 µM (inactive) | > 100 µM (inactive) |  | 66.2 µM (inactive) | > 100 µM (inactive) | > 100 µM (inactive) | > 100 µM (inactive) | 59.6 µM (inactive) | > 100 µM (inactive) | > 100 µM (inactive) | > 100 µM (inactive) | > 100 µM (inactive) |  | > 100 µM (inactive)
10 | O=c1[nH]c2cc3[nH]c4ncccc4c(=O)c3cc2[nH]1 | > 10 µM (inactive) | > 10 µM | > 10 µM (inactive) | > 10 µM (inactive) | > 10 µM (inactive) | > 10 µM (inactive) | > 10 µM (inactive) | > 10 µM (inactive) | > 10 µM (inactive) | > 10 µM (inactive) | > 10 µM (inactive) | > 10 µM (inactive) | > 10 µM (inactive) | > 10 µM (inactive) | > 10 µM (inactive) | > 10 µM (inactive) |  | > 10 µM (inactive) | > 10 µM (inactive)
11 | COc1ccc(/C=C2\CCCC(C(NO)c3ccc(OC)cc3)C2=NO)cc1 (stereo unspecified) | 35.8 µM (inactive) | 35.6 µM |  | 89.5 µM (inactive) |  | 38.6 µM (inactive) | 27.2 µM (inactive) | 29.5 µM (inactive) | 28.8 µM (inactive) | 68.2 µM (inactive) | 26.9 µM (inactive) | 39.3 µM (inactive) | 26.3 µM (inactive) | 44.3 µM (inactive) | 62.5 µM (inactive) | 53 µM (inactive) | 28.8 µM (inactive) | 36.1 µM (inactive) | 
12 | CC(=O)/C=C\C1CC2C=CC1C2 (stereo unspecified) | 15.2 µM (inactive) | 22.5 µM | 29.2 µM (inactive) | 32.3 µM (inactive) |  | 36.1 µM (inactive) |  | 27.1 µM (inactive) | 23.9 µM (inactive) | 25.8 µM (inactive) |  | 26.7 µM (inactive) | 21.6 µM (inactive) | 33.7 µM (inactive) | 45.4 µM (inactive) | 58.3 µM (inactive) | 41 µM (inactive) |  | 14.1 µM (inactive)
13 | CCOC(=O)CCC1(C(=O)OCC)CCCC1=O (stereo unspecified) | 68.4 µM (inactive) | 78.3 µM | > 100 µM (inactive) | > 100 µM (inactive) | > 100 µM (inactive) | > 100 µM (inactive) | > 100 µM (inactive) | > 100 µM (inactive) | 34.4 µM (inactive) | > 100 µM (inactive) | > 100 µM (inactive) | > 100 µM (inactive) | > 100 µM (inactive) |  | > 100 µM (inactive) | > 100 µM (inactive) | > 100 µM (inactive) | > 100 µM (inactive) | 47.6 µM (inactive)
14 | Cc1ccc2nc3cc(C)c(=O)cc-3sc2c1 | > 100 µM (inactive) | 52.8 µM | > 100 µM (inactive) | 54.1 µM (inactive) | 73.1 µM (inactive) | 57.7 µM (inactive) | 34.4 µM (inactive) | 37.8 µM (inactive) |  | 81.1 µM (inactive) | > 100 µM (inactive) | > 100 µM (inactive) | 18.7 µM (inactive) | > 100 µM (inactive) | 75 µM (inactive) | 28.7 µM (inactive) | 67.3 µM (inactive) |  | 
15 | O=C1NC2C(=O)N(Cc3ccccc3)C(=O)C2N1 (stereo unspecified) | > 100 µM (inactive) | > 100 µM | > 100 µM (inactive) | > 100 µM (inactive) | > 100 µM (inactive) | > 100 µM (inactive) | > 100 µM (inactive) | > 100 µM (inactive) | > 100 µM (inactive) | > 100 µM (inactive) | > 100 µM (inactive) | > 100 µM (inactive) | > 100 µM (inactive) | > 100 µM (inactive) | > 100 µM (inactive) | > 100 µM (inactive) | > 100 µM (inactive) | > 100 µM (inactive) | > 100 µM (inactive)
16 | O=C(CSc1nnc(-c2ccc(/N=C\c3ccc(Cl)cc3)cc2)o1)Nc1ccccc1 | 16.6 µM (inactive) | 68.2 µM |  | > 10 µM (inactive) | > 100 µM (inactive) | 50.2 µM (inactive) | 16.9 µM (inactive) | > 100 µM (inactive) | 31.6 µM (inactive) | 35.7 µM (inactive) | 43.6 µM (inactive) | > 100 µM (inactive) | 94.8 µM (inactive) | 44.9 µM (inactive) | 52 µM (inactive) | 73.8 µM (inactive) | 98.4 µM (inactive) |  | 19.6 µM (inactive)
17 | CC(=O)O[C@H]1C(=O)[C@@]2(C)C(C(OC(=O)c3ccccc3)[C@]3(O)CC(OC(=O)C(O)C(NC(=O)c4ccc(C(F)(F)F)cc4)c4ccccc4)C(C)=C1C3(C)C)[C@]1(OC(C)=O)CO[C@@H]1C[C@@H]2O (stereo partly specified) | 0.05 µM (active) | 4.97 µM | 2.13 µM (inactive) | 0.0611 µM (active) | 0.0977 µM (active) | 0.136 µM (active) | 0.0755 µM (active) | 8.77 µM (inactive) | 0.0628 µM (active) | 0.157 µM (active) | 0.128 µM (active) | 0.159 µM (active) | 0.00375 µM (active) | 0.0552 µM (active) | 0.156 µM (active) | 0.0723 µM (active) |  | 1.19 µM (inactive) | 0.156 µM (active)
